Source: patent US11945822B2, “Pyrazolo-triazine and/or pyrazolo-pxrimidine derivatives as selective inhibitor of cyclin dependent kinase” (QURIENT CO., LTD., priority 2018, dated 2024)

target: T1, CDK2/Cyclin A (Homo sapiens, UniProt P24941); test: Enzymatic assay for CDK2 (FRET based LANCE Ultra kinase assay); assay type: biochemical; conditions: read-out: CDK2 enzymatic activity (IC50 range)
T1 construct: purchased Invitrogen PV6290
Summary of the method: (§1)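 LANCE Ultra TR-FRET: ULight-MBP peptide (68 nM) with ATP at Km, […], 60 min at 23° C. EDTA plus Eu-anti-phospho-MBP added, another 60 min, then 665/615 nm emission read. Compounds tested as 8-dose 4-fold DMSO dilutions.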

SMILES	IC50 [µM]
CC(C)c1cnn2c(NCc3cccc4ccc(NC(=O)CCCN(C)C)nc34)nc(N3CCC(N)CC3)nc12 [Compound 95]	0.1 to 1
CC(=O)NC1CCN(c2nc(NCc3ccccc3-c3cc4ccccc4[nH]3)n3ncc(C(C)C)c3n2)CC1 [Compound 111]	> 1

Second part, the molecule after the results:

IC50 [µM]	SMILES
> 1	CC(C)c1cnn2c(NCc3ccccc3-c3cc4ccccc4[nH]3)nc(NC3CCOCC3)nc12 [Compound 114]
> 1	CC(C)c1cnn2c(NCc3ccccc3-c3cc4ccccc4[nH]3)nc(N3CCC(C(N)=O)CC3)nc12 [Compound 117]

target: T2, CDK5/p25 (Homo sapiens, UniProt Q00535); test: Enzymatic assay for CDK5 (FRET based LANCE Ultra kinase assay); assay type: biochemical; conditions: read-out: CDK5 enzymatic activity (IC50 range)
T2 construct: purchased Invitrogen PR8543B
T2 sequence (Q00535 whole entry): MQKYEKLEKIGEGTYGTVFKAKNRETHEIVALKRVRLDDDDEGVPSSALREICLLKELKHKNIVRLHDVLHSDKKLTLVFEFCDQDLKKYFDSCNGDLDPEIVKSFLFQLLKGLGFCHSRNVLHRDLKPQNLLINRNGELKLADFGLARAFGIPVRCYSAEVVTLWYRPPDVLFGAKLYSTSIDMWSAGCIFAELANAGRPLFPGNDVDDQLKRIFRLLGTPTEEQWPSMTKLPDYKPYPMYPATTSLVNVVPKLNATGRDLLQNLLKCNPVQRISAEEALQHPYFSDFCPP
T2 sequence (Q15078 99-307 partner limits assumed): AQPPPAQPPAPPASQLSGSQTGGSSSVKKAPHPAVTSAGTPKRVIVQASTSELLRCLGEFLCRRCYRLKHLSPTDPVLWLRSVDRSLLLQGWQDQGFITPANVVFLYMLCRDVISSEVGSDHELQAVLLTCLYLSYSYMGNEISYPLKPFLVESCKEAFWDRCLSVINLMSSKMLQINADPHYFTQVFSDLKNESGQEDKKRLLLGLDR
Summary of the method: as §1

SMILES	IC50 [µM]
CC(C)c1cnn2c(NCc3cccc4ccc(NC(=O)CCCN(C)C)nc34)nc(N3CCC(N)CC3)nc12 [Compound 95]	0.1 to 1
CC(=O)NC1CCN(c2nc(NCc3ccccc3-c3cc4ccccc4[nH]3)n3ncc(C(C)C)c3n2)CC1 [Compound 111]	> 1

Second part, the molecule after the results:

IC50 [µM]	SMILES
> 1	CC(C)c1cnn2c(NCc3ccccc3-c3cc4ccccc4[nH]3)nc(NC3CCOCC3)nc12 [Compound 114]
> 1	CC(C)c1cnn2c(NCc3ccccc3-c3cc4ccccc4[nH]3)nc(N3CCC(C(N)=O)CC3)nc12 [Compound 117]

test system: MOLT-4; test: Cellular MOLT-4 viability assay (CellTiter-Glo, 72 hours); assay type: cell-based; conditions: Homo sapiens, MOLT4 viability assay
Summary of the method: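 Steps: seed cells at per-line density; add compound, DMSO vehicle kept under 0.1% final; incubate 72 h, 37 °C, 5% CO2; lyse with CellTiter-Glo and read luminescence; run in duplicate.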

SMILES	IC50 [µM]
CC(C)c1cnn2c(NCc3cccc4ccc(NC(=O)CCCN(C)C)nc34)nc(N3CCC(N)CC3)nc12 [Compound 95]	1 to 10
CC(=O)NC1CCN(c2nc(NCc3ccccc3-c3cc4ccccc4[nH]3)n3ncc(C(C)C)c3n2)CC1 [Compound 111]	1 to 10
CC(C)c1cnn2c(NCc3ccccc3-n3ncc4ccccc43)nc(N3CCC(N)CC3)nc12 [Compound 58]	1 to 10

Next, values leading:

IC50 [µM]	SMILES
1 to 10	CC(C)c1cnn2c(NCc3ccccc3-c3cc4ccccc4[nH]3)nc(NC3CCOCC3)nc12 [Compound 114]
1 to 10	CC(C)c1cnn2c(NCc3ccccc3-c3cc4ccccc4[nH]3)nc(N3CCC(C(N)=O)CC3)nc12 [Compound 117]

test system: RPMI-8226; test: Cellular RPMI-8226 viability assay (CellTiter-Glo, 72 hours); assay type: cell-based; conditions: Homo sapiens
Method: All cell lines were routinely tested for mycoplasma.
The effect of the CDK7 inhibitor to inhibit the growth of target cancer cells was evaluated through the 72 hours time period of viability assay. Briefly, the candidate cell line ware plated in 96 well plate at the following density of cells respectively. […] DMSO solvent without compound served as a control and final DMSO concentration less than 0.1%. After 72 hours of incubation at 37° C., 5% CO2 incubator, cells were analyzed for the viability using the CellTiter-Glo Luminescent Cell Viability Assay (Promega, Cat #G7570). All viability assays were performed in duplicate and Luminescence was read using an Envision (Perkin Elmer, USA). Data was analyzed using XLfit software.

SMILES	IC50 [µM]
CC(C)c1cnn2c(NCc3cccc4ccc(NC(=O)CCCN(C)C)nc34)nc(N3CCC(N)CC3)nc12 [Compound 95]	< 1
CC(=O)NC1CCN(c2nc(NCc3ccccc3-c3cc4ccccc4[nH]3)n3ncc(C(C)C)c3n2)CC1 [Compound 111]	1 to 10
CC(C)c1cnn2c(NCc3ccccc3-n3ncc4ccccc43)nc(N3CCC(N)CC3)nc12 [Compound 58]	1 to 10

Results, then the molecule that gave them:

IC50 [µM]	SMILES
1 to 10	CC(C)c1cnn2c(NCc3ccccc3-c3cc4ccccc4[nH]3)nc(NC3CCOCC3)nc12 [Compound 114]
1 to 10	CC(C)c1cnn2c(NCc3ccccc3-c3cc4ccccc4[nH]3)nc(N3CCC(C(N)=O)CC3)nc12 [Compound 117]

target: T3, CDK7/Cyclin H/MNAT1 (Homo sapiens, UniProt P50613); test: Enzymatic assay for CDK7 (FRET based LANCE Ultra kinase assay); assay type: biochemical; conditions: CDK7 over CDK1
T3 construct: purchased Invitrogen PR6749B
T3 sequence (P50613 whole entry): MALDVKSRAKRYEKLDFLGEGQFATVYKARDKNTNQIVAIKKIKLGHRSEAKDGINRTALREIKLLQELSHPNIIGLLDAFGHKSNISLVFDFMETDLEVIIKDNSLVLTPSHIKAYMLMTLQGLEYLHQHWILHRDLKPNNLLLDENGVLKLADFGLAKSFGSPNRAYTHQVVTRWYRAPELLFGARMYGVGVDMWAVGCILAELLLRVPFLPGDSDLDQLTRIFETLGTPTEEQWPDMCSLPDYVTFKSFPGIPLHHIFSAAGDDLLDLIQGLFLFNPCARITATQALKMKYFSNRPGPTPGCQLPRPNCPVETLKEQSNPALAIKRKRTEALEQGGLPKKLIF
T3 sequence (P51946 whole entry partner): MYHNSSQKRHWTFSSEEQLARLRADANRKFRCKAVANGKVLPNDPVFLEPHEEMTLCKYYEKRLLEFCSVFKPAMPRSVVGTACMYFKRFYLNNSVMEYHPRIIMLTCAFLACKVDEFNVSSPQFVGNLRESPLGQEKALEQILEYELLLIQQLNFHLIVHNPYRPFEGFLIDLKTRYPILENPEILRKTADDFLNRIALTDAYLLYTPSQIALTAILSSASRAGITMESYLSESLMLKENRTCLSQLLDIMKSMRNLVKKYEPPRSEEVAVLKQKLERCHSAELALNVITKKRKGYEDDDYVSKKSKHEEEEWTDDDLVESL
T3 sequence (P51948 whole entry partner): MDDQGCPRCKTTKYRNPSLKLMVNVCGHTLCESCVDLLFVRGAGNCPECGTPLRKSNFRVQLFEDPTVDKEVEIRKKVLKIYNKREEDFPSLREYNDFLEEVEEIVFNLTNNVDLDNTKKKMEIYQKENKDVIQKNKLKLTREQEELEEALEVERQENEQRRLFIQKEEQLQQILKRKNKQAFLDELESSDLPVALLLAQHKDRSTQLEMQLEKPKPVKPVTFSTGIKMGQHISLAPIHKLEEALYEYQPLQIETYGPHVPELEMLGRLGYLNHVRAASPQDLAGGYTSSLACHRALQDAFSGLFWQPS
Summary of the method: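 LANCE Ultra TR-FRET kinase assay using a ULight-labeled peptide substrate and a Eu-labeled anti-phospho antibody, with ATP at its Km. Purified CDK/cyclin complex was added to compound after brief centrifugation.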

SMILES	CDK1/CDK7: Selectivity of CDK7 inhibition over CDK1 inhibition
CC(C)c1cnn2c(NCc3cccc4ccc(NC(=O)CCCN(C)C)nc34)nc(N3CCC(N)CC3)nc12 [Compound 95]	A (A=greater than 200 fold)
CC(=O)NC1CCN(c2nc(NCc3ccccc3-c3cc4ccccc4[nH]3)n3ncc(C(C)C)c3n2)CC1 [Compound 111]	B (B=less than 200 fold, but greater than 20 fold)

Now from value to molecule:

CDK1/CDK7: Selectivity of CDK7 inhibition over CDK1 inhibition	SMILES
A (A=greater than 200 fold)	CC(C)c1cnn2c(NCc3ccccc3-c3cc4ccccc4[nH]3)nc(NC3CCOCC3)nc12 [Compound 114]
A (A=greater than 200 fold)	CC(C)c1cnn2c(NCc3ccccc3-c3cc4ccccc4[nH]3)nc(N3CCC(C(N)=O)CC3)nc12 [Compound 117]

same assay, conditions: CDK7 over CDK2

SMILES	CDK2/CDK7: Selectivity of CDK7 inhibition over CDK2 inhibition
CC(C)c1cnn2c(NCc3ccccc3-c3cc4ccccc4[nH]3)nc(NC3CCOCC3)nc12 [Compound 114]	B (B=less than 200 fold, but greater than 20 fold)
CC(C)c1cnn2c(NCc3cccc4ccc(NC(=O)CCCN(C)C)nc34)nc(N3CCC(N)CC3)nc12 [Compound 95]	A (A=greater than 200 fold)
CC(=O)NC1CCN(c2nc(NCc3ccccc3-c3cc4ccccc4[nH]3)n3ncc(C(C)C)c3n2)CC1 [Compound 111]	B (B=less than 200 fold, but greater than 20 fold)
CC(C)c1cnn2c(NCc3ccccc3-c3cc4ccccc4[nH]3)nc(N3CCC(C(N)=O)CC3)nc12 [Compound 117]	A (A=greater than 200 fold)

same assay, conditions: CDK7 over CDK5

SMILES	CDK5/CDK7: Selectivity of CDK7 inhibition over CDK5 inhibition
CC(C)c1cnn2c(NCc3ccccc3-c3cc4ccccc4[nH]3)nc(NC3CCOCC3)nc12 [Compound 114]	B (B=less than 200 fold, but greater than 20 fold)
CC(C)c1cnn2c(NCc3cccc4ccc(NC(=O)CCCN(C)C)nc34)nc(N3CCC(N)CC3)nc12 [Compound 95]	B (B=less than 200 fold, but greater than 20 fold)
CC(=O)NC1CCN(c2nc(NCc3ccccc3-c3cc4ccccc4[nH]3)n3ncc(C(C)C)c3n2)CC1 [Compound 111]	C (C=less than 20 fold)
CC(C)c1cnn2c(NCc3ccccc3-c3cc4ccccc4[nH]3)nc(N3CCC(C(N)=O)CC3)nc12 [Compound 117]	B (B=less than 200 fold, but greater than 20 fold)

same assay, conditions: read-out: CDK7 enzymatic activity (IC50 range)

SMILES	IC50 [µM]
CC(C)c1cnn2c(NCc3cccc4ccc(NC(=O)CCCN(C)C)nc34)nc(N3CCC(N)CC3)nc12 [Compound 95]	< 0.1
CC(=O)NC1CCN(c2nc(NCc3ccccc3-c3cc4ccccc4[nH]3)n3ncc(C(C)C)c3n2)CC1 [Compound 111]	< 0.1

The next lines start with the values.

IC50 [µM]	SMILES
0.1 to 1	CC(C)c1cnn2c(NCc3ccccc3-c3cc4ccccc4[nH]3)nc(NC3CCOCC3)nc12 [Compound 114]
0.1 to 1	CC(C)c1cnn2c(NCc3ccccc3-c3cc4ccccc4[nH]3)nc(N3CCC(C(N)=O)CC3)nc12 [Compound 117]

target: T4, CDK1/Cyclin B (Homo sapiens, UniProt P06493); test: Enzymatic assay for CDK1 (FRET based LANCE Ultra kinase assay); assay type: biochemical; conditions: read-out: CDK1 enzymatic activity (IC50 range)
T4 construct: purchased Invitrogen PR4768C
T4 sequence (P06493 whole entry): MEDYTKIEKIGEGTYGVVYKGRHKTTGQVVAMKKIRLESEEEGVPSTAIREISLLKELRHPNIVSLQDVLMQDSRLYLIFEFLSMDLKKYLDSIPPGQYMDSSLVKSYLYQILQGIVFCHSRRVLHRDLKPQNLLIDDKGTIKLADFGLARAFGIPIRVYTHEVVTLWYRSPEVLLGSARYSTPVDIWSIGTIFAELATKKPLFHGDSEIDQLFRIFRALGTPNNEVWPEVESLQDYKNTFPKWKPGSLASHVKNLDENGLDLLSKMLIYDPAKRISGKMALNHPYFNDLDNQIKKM
T4 sequence (P14635 whole entry partner): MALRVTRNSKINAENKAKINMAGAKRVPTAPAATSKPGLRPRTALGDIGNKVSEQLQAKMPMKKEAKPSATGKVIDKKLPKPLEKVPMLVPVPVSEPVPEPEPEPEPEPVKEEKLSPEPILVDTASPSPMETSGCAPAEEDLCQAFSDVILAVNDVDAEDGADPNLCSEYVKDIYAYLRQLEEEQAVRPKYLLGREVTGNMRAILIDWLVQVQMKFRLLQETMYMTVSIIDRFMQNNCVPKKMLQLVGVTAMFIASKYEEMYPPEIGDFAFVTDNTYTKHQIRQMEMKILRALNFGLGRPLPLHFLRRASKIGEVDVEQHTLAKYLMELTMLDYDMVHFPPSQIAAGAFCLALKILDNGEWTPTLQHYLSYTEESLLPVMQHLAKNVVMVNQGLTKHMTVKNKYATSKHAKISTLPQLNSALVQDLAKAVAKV
Summary of the method: as §1

SMILES	IC50 [µM]
CC(C)c1cnn2c(NCc3cccc4ccc(NC(=O)CCCN(C)C)nc34)nc(N3CCC(N)CC3)nc12 [Compound 95]	> 1
CC(=O)NC1CCN(c2nc(NCc3ccccc3-c3cc4ccccc4[nH]3)n3ncc(C(C)C)c3n2)CC1 [Compound 111]	> 1

Second part, the molecule after the results:

IC50 [µM]	SMILES
> 1	CC(C)c1cnn2c(NCc3ccccc3-c3cc4ccccc4[nH]3)nc(NC3CCOCC3)nc12 [Compound 114]
> 1	CC(C)c1cnn2c(NCc3ccccc3-c3cc4ccccc4[nH]3)nc(N3CCC(C(N)=O)CC3)nc12 [Compound 117]
